Results as given in ChEMBL document CHEMBL6153048, “Synthesis and pharmacological evaluation of natural product diphyllin derivatives against head and neck squamous cell carcinoma” (Eur J Med Chem, 2025).
Calls of active or inactive are those of the source. The rule behind the calls is not given here.

How the values were obtained:
[1] = tested on: CAL-27; test: Induction of apoptosis in human CAL-27 cells assessed as viable cells at 1000 nM incubated for 72 hrs by Annexin V-FITC/propidium iodide staining based flow cytometry analysis (reference value: 88.23%); format: functional; conditions: read-out: Activity
[2] = tested on: CAL-27; test: Antitumor activity against human CAL-27 cells xenografted in BALB/c mouse model assessed as reduction in tumor weight at 0.3 mg/kg, iv treated four times a week for 30 days; format: functional; set-up: scale not given: the % may be the effect or the level left; conditions: time 30 day
[3] = tested on: CAL-27; test: Antitumor activity against human CAL-27 cells xenografted in BALB/c mouse model assessed as reduction in nuclear division at 0.6 mg/kg, iv treated four times a week for 30 days by HE staining analysis; format: functional, organism-based; conditions: time 30.0 day
[4] = tested on: CAL-27; test: Antiproliferative activity against human CAL-27 cells assessed as inhibition of cell communities at 1 uM treated for 11 days by plate clone formation assay; format: functional, cell-based; conditions: time 11.0 day
[5] = tested on: CAL-27; test: Antitumor activity against human CAL-27 cells xenografted in BALB/c mouse model assessed as reduction in reduction in Ki-67 expression at 0.6 mg/kg, iv treated four times a week for 30 days by immunohistochemical staining analysis; format: functional, organism-based; conditions: time 30.0 day
[6] = tested on: CAL-27; test: Effect on cell adhesion molecule in human CAL-27 cells assessed as regulation of gene expression at 1 nM incubated for 48 hrs by GSEA analysis; format: functional, cell-based
[7] = tested on: CAL-27; test: Induction of apoptosis in human CAL-27 cells assessed as late apoptotic cells at 1 nM incubated for 72 hrs by Annexin V-FITC/propidium iodide staining based flow cytometry analysis (reference value: 1.82%); format: functional
[8] = tested on: CAL-27; test: Effect on epithelial cell proliferation in human CAL-27 cells assessed as regulation of cell proliferation related gene expression at 1 nM incubated for 48 hrs by GO analysis; format: functional, cell-based
[9] = tested on: CAL-27; test: Induction of apoptosis in human CAL-27 cells assessed as early apoptotic cells at 10 nM incubated for 72 hrs by Annexin V-FITC/propidium iodide staining based flow cytometry analysis (reference value: 7.74%); format: functional
[10] = tested on: CAL-27; test: Induction of apoptosis in human CAL-27 cells assessed as early apoptotic cells at 1000 nM incubated for 72 hrs by Annexin V-FITC/propidium iodide staining based flow cytometry analysis (reference value: 7.74%); format: functional

| Structure (SMILES) | viability at 1 µM [1] [%] | Activity [2] [%] | Activity [3] | Activity [4] | Activity [5] | Activity [6] | Activity [7] [%] | Activity [8] | Activity [9] [%] | Activity [10] [%] |
| --- | --- | --- | --- | --- | --- | --- | --- | --- | --- | --- |
| COc1cc2c(O)c3c(c(-c4ccc5c(c4)OCO5)c2cc1OC)C(=O)OC3 [DIPHYLLIN] | 82.8 |  |  |  |  |  |  |  |  |  |
| COc1cc2c(O[C@@H]3O[C@@H]4CO[C@@H](c5ccsc5)O[C@H]4[C@H](O)[C@H]3O)c3c(c(-c4ccc5c(c4)OCO5)c2cc1OC)C(=O)OC3 |  | 34 | Active | Active; Showed More Potent Suppression | Active | Active | 2.19 | Active | 16.27 | 25.35 |
